Results: ChEMBL document CHEMBL1629667, “Activities of dalbavancin against a worldwide collection of 81,673 gram-positive bacterial isolates” (2009)
In brackets after ≈: the same amount, converted by molar mass.

Key:
Staphylococcus aureus [1] = assay: Antimicrobial activity against Oxacillin-susceptible Staphylococcus aureus assessed as percent resistant isolates by broth microdilution method; format: functional
Staphylococcus aureus [2] = assay: Antimicrobial activity against Oxacillin-resistant Staphylococcus aureus assessed as percent resistant isolate by broth microdilution method; format: functional
Staphylococcus aureus [3] = assay: Antimicrobial activity against Oxacillin-resistant Staphylococcus aureus by broth microdilution method; format: functional
Staphylococcus [4] = assay: Antimicrobial activity against Oxacillin-susceptible coagulase-negative Staphylococcus by broth microdilution method; format: functional
Staphylococcus [5] = assay: Antimicrobial activity against Oxacillin-resistant coagulase-negative Staphylococcus by broth microdilution method; format: functional
Streptococcus [6] = assay: Antimicrobial activity against Beta-hemolytic Streptococcus by broth microdilution method; format: functional
Streptococcus [7] = assay: Antimicrobial activity against viridans group Streptococcus by broth microdilution method; format: functional
Staphylococcus aureus [8] = assay: Antimicrobial activity against Oxacillin-susceptible Staphylococcus aureus assessed as percent susceptible isolate by broth microdilution method; format: functional
Staphylococcus [9] = assay: Antimicrobial activity against Oxacillin-susceptible coagulase-negative Staphylococcus assessed as percent susceptible isolate by broth microdilution method; format: functional
Streptococcus [10] = assay: Antimicrobial activity against Beta-hemolytic Streptococcus assessed as percent susceptible isolate by broth microdilution method; format: functional
Enterococcus faecalis [11] = assay: Antimicrobial activity against Enterococcus faecalis VanA assessed as growth inhibition at =<[…] ug/ml by broth microdilution method; format: functional
Enterococcus faecalis [12] = assay: Antimicrobial activity against Enterococcus faecalis VanA assessed as growth inhibition at 0.06 ug/ml by broth microdilution method; format: functional
Enterococcus faecalis [13] = assay: Antimicrobial activity against Enterococcus faecalis VanA assessed as growth inhibition at 0.12 ug/ml by broth microdilution method; format: functional
Enterococcus faecalis [14] = assay: Antimicrobial activity against Enterococcus faecalis VanA assessed as growth inhibition at 0.25 ug/ml by broth microdilution method; format: functional
Enterococcus faecalis [15] = assay: Antimicrobial activity against Enterococcus faecalis VanA assessed as growth inhibition at 0.5 ug/ml by broth microdilution method; format: functional
Enterococcus faecalis [16] = assay: Antimicrobial activity against Enterococcus faecalis VanA assessed as growth inhibition at 2 ug/ml by broth microdilution method; format: functional
Enterococcus faecalis [17] = assay: Antimicrobial activity against Enterococcus faecalis VanA assessed as growth inhibition at 4 ug/ml by broth microdilution method; format: functional
Enterococcus faecalis [18] = assay: Antimicrobial activity against Enterococcus faecalis VanB assessed as growth inhibition at 0.06 ug/ml by broth microdilution method; format: functional
Enterococcus faecalis [19] = assay: Antimicrobial activity against Enterococcus faecalis VanB assessed as growth inhibition at 0.12 ug/ml by broth microdilution method; format: functional
Enterococcus faecalis [20] = assay: Antimicrobial activity against Enterococcus faecalis VanB assessed as growth inhibition at 0.25 ug/ml by broth microdilution method; format: functional
Enterococcus faecalis [21] = assay: Antimicrobial activity against Enterococcus faecalis VanB assessed as growth inhibition at 0.5 ug/ml by broth microdilution method; format: functional
Enterococcus faecium [22] = assay: Antimicrobial activity against Enterococcus faecium VanA assessed as growth inhibition at 0.06 ug/ml by broth microdilution method; format: functional
Enterococcus faecium [23] = assay: Antimicrobial activity against Enterococcus faecium VanA assessed as growth inhibition at 0.12 ug/ml by broth microdilution method; format: functional
Enterococcus faecium [24] = assay: Antimicrobial activity against Enterococcus faecium VanA assessed as growth inhibition at 0.25 ug/ml by broth microdilution method; format: functional
Enterococcus faecium [25] = assay: Antimicrobial activity against Enterococcus faecium VanA assessed as growth inhibition at 0.5 ug/ml by broth microdilution method; format: functional
Enterococcus faecium [26] = assay: Antimicrobial activity against Enterococcus faecium VanA assessed as growth inhibition at 1 ug/ml by broth microdilution method; format: functional
Enterococcus faecium [27] = assay: Antimicrobial activity against Enterococcus faecium VanA assessed as growth inhibition at 4 ug/ml by broth microdilution method; format: functional
Enterococcus faecium [28] = assay: Antimicrobial activity against Enterococcus faecium VanB assessed as growth inhibition at =<[…] ug/ml by broth microdilution method; format: functional
Enterococcus faecium [29] = assay: Antimicrobial activity against Enterococcus faecium VanB assessed as growth inhibition at 0.06 ug/ml by broth microdilution method; format: functional
Enterococcus faecium [30] = assay: Antimicrobial activity against Enterococcus faecium VanB assessed as growth inhibition at 0.12 ug/ml by broth microdilution method; format: functional
Enterococcus faecium [31] = assay: Antimicrobial activity against Enterococcus faecium VanB assessed as growth inhibition at 0.25 ug/ml by broth microdilution method; format: functional
Enterococcus faecium [32] = assay: Antimicrobial activity against Enterococcus faecium VanB assessed as growth inhibition at 4 ug/ml by broth microdilution method; format: functional
[33] = system: Streptococcus sp. 'group A'; assay: Antimicrobial activity against Beta-hemolytic Streptococcus sp. 'group A' assessed as growth inhibition at =<[…] ug/ml by broth microdilution method; format: functional
[34] = system: Streptococcus sp. 'group A'; assay: Antimicrobial activity against Beta-hemolytic Streptococcus sp. 'group A' assessed as growth inhibition at 0.06 ug/ml by broth microdilution method; format: functional
[35] = system: Streptococcus sp. 'group A'; assay: Antimicrobial activity against Beta-hemolytic Streptococcus sp. 'group A' assessed as growth inhibition at 0.12 ug/ml by broth microdilution method; format: functional
[36] = system: Streptococcus sp. 'group A'; assay: Antimicrobial activity against Beta-hemolytic Streptococcus sp. 'group A' assessed as growth inhibition at 0.25 ug/ml by broth microdilution method; format: functional
[37] = system: Streptococcus sp. 'group B'; assay: Antimicrobial activity against Beta-hemolytic Streptococcus sp. 'group B' assessed as growth inhibition at =<[…] ug/ml by broth microdilution method; format: functional
[38] = system: Streptococcus sp. 'group B'; assay: Antimicrobial activity against Beta-hemolytic Streptococcus sp. 'group B' assessed as growth inhibition at 0.06 ug/ml by broth microdilution method; format: functional
[39] = system: Streptococcus sp. 'group B'; assay: Antimicrobial activity against Beta-hemolytic Streptococcus sp. 'group B' assessed as growth inhibition at 0.12 ug/ml by broth microdilution method; format: functional
[40] = Antimicrobial activity against Beta-hemolytic Streptococcus sp. 'group C' assessed as growth inhibition at =<[…] ug/ml by broth microdilution method; format: functional
[41] = Antimicrobial activity against Beta-hemolytic Streptococcus sp. 'group C' assessed as growth inhibition at 0.06 ug/ml by broth microdilution method; format: functional
[42] = Antimicrobial activity against Beta-hemolytic Streptococcus sp. 'group G' assessed as growth inhibition at =<[…] ug/ml by broth microdilution method; format: functional
[43] = Antimicrobial activity against Beta-hemolytic Streptococcus sp. 'group G' assessed as growth inhibition at 0.06 ug/ml by broth microdilution method; format: functional
[44] = Antimicrobial activity against Beta-hemolytic Streptococcus sp. 'group G' assessed as growth inhibition at 0.12 ug/ml by broth microdilution method; format: functional
Streptococcus sp. [45] = assay: Antimicrobial activity against Beta-hemolytic Streptococcus sp. […]; format: functional, Group F
Streptococcus sp. [46] = assay: Antimicrobial activity against Beta-hemolytic Streptococcus sp. Group F assessed as growth inhibition at 0.06 ug/ml by broth microdilution method; format: functional
Streptococcus sp. [47] = assay: Antimicrobial activity against Beta-hemolytic Streptococcus sp. Group F assessed as growth inhibition at 0.12 ug/ml by broth microdilution method; format: functional
Staphylococcus [48] = assay: Antimicrobial activity against Oxacillin-resistant coagulase-negative Staphylococcus assessed as percent resistant isolate by broth microdilution method; format: functional

In the case of `CN[C@H](CC(C)C)C(=O)N[C@H]1C(=O)N[C@@H](CC(N)=O)C(=O)N[C@H]2C(=O)N[C@H]3C(=O)N[C@H](C(=O)N[C@H](C(=O)O)c4cc(O)cc(O)c4-c4cc3ccc4O)[C@H](O)c3ccc(c(Cl)c3)Oc3cc2cc(c3O[C@@H]2O[C@H](CO)[C@@H](O)[C@H](O)[C@H]2O[C@H]2C[C@](C)(N)[C@H](O)[C@H](C)O2)Oc2ccc(cc2Cl)[C@H]1O` [VANCOMYCIN], the Activity (Staphylococcus aureus [1]) is reported as 0%, the Activity (Staphylococcus aureus [2]) is reported as 0% and the MIC50 (Staphylococcus aureus [3]) is reported as 1 µg/mL (≈ 0.69 µM). The MIC90 (Staphylococcus aureus [3]) was 1 µg/mL (≈ 0.69 µM), the MIC50 (Staphylococcus [4]) was 1 µg/mL (≈ 0.69 µM) and the MIC90 (Staphylococcus [4]) was 2 µg/mL (≈ 1.38 µM). The MIC50 (Staphylococcus [5]) was 1 µg/mL (≈ 0.69 µM), the MIC90 (Staphylococcus [5]) was > 2 µg/mL and the MIC50 (Streptococcus [6]) was 0.5 µg/mL (≈ 0.345 µM). The MIC90 (Streptococcus [6]) was 0.5 µg/mL (≈ 0.345 µM), the MIC50 (Streptococcus [7]) was 0.5 µg/mL (≈ 0.345 µM) and the MIC90 (Streptococcus [7]) was 1 µg/mL (≈ 0.69 µM). For the same molecule, the Activity (Staphylococcus aureus [8]) was >99.9%, the Activity (Staphylococcus [9]) was 100% and the Activity (Streptococcus [10]) was 100%. The “inhibition (INH)” value (Enterococcus faecalis [11]) was 0.4%, the inhibition at 0.06 µg/mL (Enterococcus faecalis [12]) was 0.9% and the inhibition at 0.12 µg/mL (Enterococcus faecalis [13]) was 2.6%. It also gave an inhibition at 0.25 µg/mL (Enterococcus faecalis [14]) of 3.9%, an inhibition at 0.5 µg/mL (Enterococcus faecalis [15]) of 4.3% and an inhibition at 2 µg/mL (Enterococcus faecalis [16]) of 7.4%. It also gave an inhibition at 4 µg/mL (Enterococcus faecalis [17]) of 14.8%, an inhibition at 0.06 µg/mL (Enterococcus faecalis [18]) of 33.3% and an inhibition at 0.12 µg/mL (Enterococcus faecalis [19]) of 70.2%. The inhibition at 0.25 µg/mL (Enterococcus faecalis [20]) was 70.2%, the inhibition at 0.5 µg/mL (Enterococcus faecalis [21]) was 75% and the inhibition at 0.06 µg/mL (Enterococcus faecium [22]) was 0.3%. For the same molecule, the inhibition at 0.12 µg/mL (Enterococcus faecium [23]) was 1.2%, the inhibition at 0.25 µg/mL (Enterococcus faecium [24]) was 3.1% and the inhibition at 0.5 µg/mL (Enterococcus faecium [25]) was 6.6%. The inhibition at 1 µg/mL (Enterococcus faecium [26]) was 11.5%, the inhibition at 4 µg/mL (Enterococcus faecium [27]) was 33.1% and the “inhibition (INH)” value (Enterococcus faecium [28]) was 26.1%. For the same molecule, the inhibition at 0.06 µg/mL (Enterococcus faecium [29]) was 56%, the inhibition at 0.12 µg/mL (Enterococcus faecium [30]) was 71.6% and the inhibition at 0.25 µg/mL (Enterococcus faecium [31]) was 77.6%. The inhibition at 4 µg/mL (Enterococcus faecium [32]) was 97.8%, the “inhibition (INH)” value [33] was 98.8% and the inhibition at 0.06 µg/mL [34] was 99.9%. The inhibition at 0.12 µg/mL [35] was > 99.9%, the inhibition at 0.25 µg/mL [36] was 100% and the “inhibition (INH)” value [37] was 90.3%. The inhibition at 0.06 µg/mL [38] was 98%, the inhibition at 0.12 µg/mL [39] was 99.6% and the “inhibition (INH)” value [40] was 99.4%. For the same molecule, the inhibition at 0.06 µg/mL [41] was 100%, the “inhibition (INH)” value [42] was 95.6% and the inhibition at 0.06 µg/mL [43] was 99.6%. The inhibition at 0.12 µg/mL [44] was 100%, the “inhibition (INH)” value (Streptococcus sp. [45]) was 97.1% and the inhibition at 0.06 µg/mL (Streptococcus sp. [46]) was 97.1%. For the same molecule, the inhibition at 0.12 µg/mL (Streptococcus sp. [47]) was 100% and the Activity (Staphylococcus [48]) was 0%.
